US11638709B2, “Rucaparib, Talazoparib, Veliparib, Olaparib and AZD 2461 for treating impaired skin wound healing” (AKRIBES BIOMEDICAL GMBH, priority 2017, dated 2023)

Columns and labels:
[1] = test system: macrophages in co-culture with fibroblasts; assay: Fibroblast-macrophage coculture with wound exudate (FACS, ELISA); type: cell-based, human; details: wound exudate #78; for percentage of live cells in the FACS CD45-gate (macrophages): FIG. 17 A; for macrophage M2 marker CD206: FIG. 17 B; for proinflammatory cytokine IL-1α induced by wound exudate: FIG. 17 C
Protocol: CD14^+ monocytes, isolated from PBMC of healthy donors by magnetic bead separation were incubated either alone or in the presence of primary human dermal fibroblasts (CellNTec) or fibroblast-derived matrices (FDM). FDM had been generated from primary human dermal fibroblasts by a 3-week incubation with the growth supplements vitamin C or insulin and EGF (vitamin C: 2-phospho-L-ascorbic acid trisodium salt, 100 μg/ml; human EGF, 5 ng/ml; human insulin, 5 μg/ml). Alternatively, fibroblast monolayer cultures can be used as well. After 4 days to a week to allow for macrophage differentiation in the presence or absence of M-CSF (25 ng/ml), the cultures were stimulated overnight with graded concentrations of test compounds in the absence or presence of various dilutions of sterile-filtered WE. IFN-g (50 ng/ml), LPS (100 ng/ml) and IL-4 (25 ng/ml) or combinations thereof served as controls for M1 and M2 macrophage induction. For negative control samples, medium was added instead of specific stimuli. WE were added to the culture medium for overnight stimulation at dilutions ranging from 1:25 to 1:100.
Supernatants were harvested and frozen for cytokine determination by ELISA, and cells were harvested and subjected to FACS analysis, gating on the monocyte population. Geometric means or mean fluorescence intensities (MFI) were used to quantify surface marker expression.
ELISA: CXCL10 and IL-23p19 for M1 macrophages and CCL22 and CCL18 as M2 macrophage markers, IL-1alpha, IL-1beta and TNF-alpha as pro-inflammatory markers indicative of an M1 phenotype.
Cells were harvested and resuspended in FACS buffer (PBS containing 2% FCS). Unspecific antibody binding was prevented by incubation with human Trustain FCR blocking solution (Biolegend, #422302) on ice for 10 minutes. The following fluorchrome-conjugated antibodies from eBioscience (now ThermoFisher Scientific) were used to detect specific surface markers by staining on ice for 30 minutes: CD38-PerCPeFluor710 (#46-0388-42), CD197-APC (#17-1979-42), CD206-AF488 (#53-2069-42), CD209-PerCP Cy5.5 (#45-2099-42). Co-staining with CD45 eFluor (#506 69-0459-42) was used to distinguish macrophages from primary human fibroblasts when analyzed from co-cultures. After washing cells with FACS buffer, they were fixed with 1% paraformaldehyde in PBS and stored at 4° C. in the dark until data were acquired on a Gallios flow cytometer from Beckman Coulter and analyzed with the Kaluza analysis software 1.3.

[2] = test system: alpha-smooth muscle actin (α-SMA) in human dermal fibroblasts; assay: Immunolocalization of alpha-smooth muscle actin in 2D HDF culture; type: cell-based; details: FIG. 16; wound exudates #91 and #55; talazoparib 0.1 μM
Protocol: Primary human dermal fibroblasts (HDF) were purchased from CELLnTEC, Bern. They were routinely grown in Dulbecco's modified Eagle's medium (DMEM) containing 10% FCS, 2 mM glutamine, and 100 U/ml penicillin/100 μg/ml streptomycin. Media, antibiotics, and glutamine were bought from Lonza. The cells were used at passage 5-15. Cells were trypsinized and seeded at 5000 cells/well in 200 μl into the inner wells of 96-well plates. The outer wells were loaded with sterile water. The cells were allowed to adhere overnight and then incubated for 72 hours at 37° C. under the following conditions: graded compound concentrations or 20 ng/ml PDGF-BB (Tonbo Biosciences) in the absence or presence of different dilutions of sterile-filtered WE in medium. For control samples, 200 μl medium was added instead of specific stimuli. Alternatively, the cells were seeded into 384-well plates at 2500 cells/well directly together with test compounds or growth factors and WE or medium in a total volume of […].
After fixation with paraformaldehyde, the cells were incubated for 1 hour at room temperature with a monoclonal mouse-anti-human antibody against alpha-smooth muscle actin (α-SMA) from e-Bioscience, washed 3 times with PBS and developed with an Alexa Fluor-labelled donkey-anti-mouse IgG (Molecular Probes). […]

| SMILES | percentage of live cells in the FACS CD45-gate (macrophages) [1] | macrophage M2 marker CD206 [1] | proinflammatory cytokine IL-1α induced by wound exudate [1] | expression of α-SMA [2] |
| --- | --- | --- | --- | --- |
| C[C@]1(c2nc3c(C(N)=O)cccc3[nH]2)CCCN1 [Veliparib, 2-((2R)-2-methylpyrrolidin-2-yl)-1H-benzimidazole-4-carboxamide] | dose-dependently increased | dose-dependently increased | reduced |  |
| Cn1ncnc1[C@H]1c2n[nH]c(=O)c3cc(F)cc(c23)N[C@@H]1c1ccc(F)cc1 [Talazoparib] | dose-dependently increased | dose-dependently increased | reduced | able to induce expression of α-SMA |
